From US8420696B2, “Use of low-dose ladostigil for neuroprotection” (priority 2005, dated 2013)

Key:
[1] = tested on: NT immunoreactivity in astrocytes; experiment: Example 2: astrocyte activation and NT immunoreactivity in hippocampus and regions bordering lateral ventricles after icv STZ; type: in vivo, Sprague-Dawley rats; details: 1 mg/kg/day orally, one week after icv STZ
Experimental: Male Sprague-Dawley rats (63) weighing 320-340 g, aged 4 months, were anesthetized by an intraperitoneal injection of Equithesin 0.3 ml/kg. STZ (0.5 mg) dissolved in 2 μl artificial cerebrospinal fluid (CSF) was injected into each lateral ventricle of 45 rats. The stereotaxic co-ordinates for icv injection were: 0.9 mm posterior, 1.8 mm lateral and 3.8 mm ventral from the bregma level. Control rats (18) received a bilateral injection of 2 μl artificial CSF. STZ-injected rats (25) were given ladostigil (1 mg/kg of the hemitartrate salt/day) orally in a volume of (1 ml/kg) from one week before, until 1 or 8 weeks after icv STZ. The remaining 20 rats received 1 ml/kg water. The rats were housed two per cage with free access to food and water until the behavioral, enzymatic and cytochemical measurements were completed. […]
Nitrotyrosine, (NT) a marker of nitrative/oxidative stress, was stained with rabbit anti-nitrotyrosine from Upstate (Lake Placid, N.Y., USA), diluted 1:100 followed by the secondary donkey anti-rabbit conjugated with horseradish peroxidase from Chemicon (Temecula, Calif., USA), was diluted 1:200. […] Images were obtained by bright field microscopy and quantitative assessments of appropriate markers were made using AnalySIS software. […]
For each quantitative analysis of NT-immunoreactive astrocytes, 3 sections were sampled from each rat. […]

[2] = tested on: cultured microglia; experiment: Release of NO from cultured microglia induced by LPS; type: cell-based; details: concentrations of 0.1-10 μM; preliminary data
Experimental: It is therefore likely that the neuroprotective effect of ladostigil resulted from other actions of the drug. These could include a direct effect on microglia as shown in preliminary data from experiments in our laboratory in which concentrations of 0.1-10 μM reduced by 20-40% the release of NO from cultured microglia induced by LPS. These concentrations are too low to inhibit ChE in microglia.

[3] = molecular target: T1, MAO-B (Rattus norvegicus, UniProt P19643); experiment: Example 2: MAO-B activity in homogenates of striatum; type: in vivo, rats; details: chronic 1 mg/kg
T1 construct: from tissue; host or cells: striatum homogenate of dosed Sprague-Dawley rats
T1 sequence (P19643 1-520): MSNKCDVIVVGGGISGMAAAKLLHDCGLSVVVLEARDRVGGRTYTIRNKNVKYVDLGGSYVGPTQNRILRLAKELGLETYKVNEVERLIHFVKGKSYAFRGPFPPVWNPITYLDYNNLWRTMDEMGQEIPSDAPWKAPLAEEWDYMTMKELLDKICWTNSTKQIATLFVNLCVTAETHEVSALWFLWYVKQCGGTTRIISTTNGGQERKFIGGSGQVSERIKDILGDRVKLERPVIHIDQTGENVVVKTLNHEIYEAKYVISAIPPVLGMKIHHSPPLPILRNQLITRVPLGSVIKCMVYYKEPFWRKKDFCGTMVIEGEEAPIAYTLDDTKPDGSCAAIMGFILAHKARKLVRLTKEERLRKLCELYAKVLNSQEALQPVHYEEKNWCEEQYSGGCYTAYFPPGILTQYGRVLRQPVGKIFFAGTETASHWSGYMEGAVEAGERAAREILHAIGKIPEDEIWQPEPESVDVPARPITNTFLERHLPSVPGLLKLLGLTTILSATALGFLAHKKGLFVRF
Experimental: The effect of chronic ladostigil treatment on ChE activity in the cortex and hippocampus of rats was determined one week after icv STZ in 12 rats (3 treated with water and 9 with ladostigil). The effect of acute treatment with ladostigil 1 or 17 mg/kg was determined 2 hrs after drug administration. […] The brain was rapidly removed, washed with saline on ice and the cortex, hippocampus and striatum dissected out, quickly weighed and stored at −70° C. until assay. Total ChE activity in the cortex and hippocampus was measured as described in Wang et al., Gender differences in the effect of rivastigmine on brain cholinesterase activity and cognitive function in rats, Neuropharmacology (2000) 39:497-506, using the spectrophotometric method of Ellman et al., A new and rapid colorimetric determination of acetylcholinesterase activity, Biochem. Pharmacol. (1961) 7:88-95 with acetylthiocholine (Sigma Ltd) as a substrate using homogenate of 100 mg tissue in 1 ml phosphate buffer. […] MAO A and B activity was measured in homogenates of striatum as described in Weinstock et al., Limited potentiation of blood pressure response to oral tyramine by brain-selective monoamine oxidase A-B inhibitor, TV-3326 in conscious rabbits, Neuropharmacology (2002) 43:999-1005.

SMILES: C#CCN[C@@H]1CCc2ccc(OC(=O)N(C)CC)cc21 [ladostigil, R(+)-6-(N-methyl,N-ethyl-carbamoyloxy)-N′-propargyl-1-aminoindan]
- Astrocyte activation and NT immunoreactivity in CA1, corpus callosum, medial and lateral septum [1]: reduced both astrocyte activation and NT immunoreactivity in these brain regions to the level of that seen in CSF-injected controls
- Reduction of the release of NO from cultured microglia induced by LPS [2]: 20-40%
- MAO-B (%) inhibition ([3]; 60 min): 11.3 ± 1.4 %
- MAO-B (%) inhibition ([3]; 120 min (2 hrs)): 15%
